Experimental findings from PubChem BioAssay AID1259426 (Fisher Drug Discovery Resource Center, 2018) are described below.

Active and inactive are the calls of the source.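 Rule for the calls: active = EC50 under a set limit in control cells lacking the mosquito receptor, marking a fluorescence artifact; inactive = the rest.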

Broadly, the EC50 is the concentration giving half of the maximal effect.

For this test, the target named is HEK293 Galpha15/GCaMP6s without NPYLR7, calcium fluorescence. Briefly: calcium response in NPYLR7-null HEK293 cells, dose response, counter-screen for mosquito NPYLR7 agonist project, cell-based, HEK293 lacking NPYLR7 (AID 1259426).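 Note: potency for a rise in fluorescence over baseline.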
Regarding `O=c1oc2cc(O)ccc2cc1-c1nc2ccccc2s1`, the EC50 is 0.0533 µM.

Take `Cc1ccc(C(=O)C=Cc2ccc(N(C)C)cc2)o1`: the EC50 was under 0.039 µM.

Take `CCN1CCN(C(=O)c2ccc(Cn3ccsc3=NC(=O)c3ccc(OC)c(OC)c3)o2)CC1`: the EC50 is > 20 µM (inactive).

With `CCN1CCc2c(sc(NC(=O)COc3ccccc3)c2-c2nc3ccccc3s2)C1`, the EC50 was > 20 µM (inactive).

Regarding `COc1cc(Br)c(O)c(/C=N\n2c(C)n[nH]c2=S)c1`, the EC50 was > 20 µM (inactive).

Consider `CCC(CO)[n+]1c(C)cc(C=C2Sc3ccccc3N2CC)cc1C` (configuration not stated), for which the EC50 was 1.86 µM.

Turning to `CC1(C)OC2OC(C(O)c3cc(O)c4c(c3O)C(=O)c3ccccc3C4=O)C(C)(O)C2O1` (configuration not stated), the EC50 is 1.86 µM.

Turning to `O=C(O)CN1C(=O)/C(=C/c2cc(Br)c(O)c(Br)c2)SC1=S`, the concentration giving a half-maximal response (EC50) was 0.289 µM.

`Cc1ccc(N2C(=O)NC(=O)/C(=C\c3cccs3)C2=O)cc1`: the EC50 is > 20 µM (inactive).

As to `CCCCNC(=O)CCCCCNC(N)=O`, the EC50 is > 20 µM (inactive).

For `COc1cc(C=C2C=c3c(O)cccc3=C2O)cc(Cl)c1O`, the EC50 was 0.524 µM.

As for `COc1ccc(-c2cnn(CCC(N)=O)c2)c(C)c1`, the EC50 is > 20 µM (inactive).

As for `Nc1ccc(Oc2cc(N)cc(Oc3ccccc3)c2)cc1`, the EC50 was 18.3 µM.

Consider `O=C1/C(=C/c2ccc3c(c2)OCO3)Oc2c1ccc1c2CN(CC2CCCO2)CO1` (configuration not stated), for which the EC50 is 8.39 µM.

Consider `CN1C(=CC=C2C(=O)Oc3ccccc3C2=O)C(C)(C)c2ccccc21`, for which the EC50 is 1.98 µM.

On to `COc1cc(C=C(C#N)S(=O)(=O)c2cc(Br)ccc2Br)ccc1O`, for which the EC50 was 19.5 µM.

`CCCC1CCC(C(=O)Nc2nnc(SCC)s2)CC1` (configuration not stated): the EC50 is > 20 µM (inactive).

Take `CCc1nc(N=C(N)N)nc2cc(C)ccc12`: the EC50 was > 20 µM (inactive).

As to `Cc1ccc(Nc2nc(Nc3cccc(F)c3)nc3nccnc23)c(C)c1`, the EC50 was > 20 µM (inactive).

`COCCOc1ccc(NS(=O)(=O)c2cn(C)c(Cl)n2)cn1`: the EC50 is 7.28 µM.

In the case of `CC(C(=O)O)N1C(=O)/C(=C\c2ccc(O)cc2)SC1=S` (configuration not stated), the EC50 was 12.1 µM.

Consider `COc1ccc(N2CCN(c3cc(C(F)(F)F)nc(SCc4cccc(C(=O)NCc5ccccn5)c4)n3)CC2)cc1`, for which the EC50 is > 20 µM (inactive).

With `CC(C(=O)O)n1c(O)c(C=C2C=Nc3ccccc32)sc1=S` (configuration not stated), the EC50 is 6.92 µM.

Regarding `C=CCNc1ccc2c3c(cccc13)C(=O)N(c1ccccc1)C2=O`, the EC50 was 0.0583 µM.

Take `Cc1ccc(OCCNC(=O)N2CCN(S(=O)(=O)c3ccccc3Cl)CC2)c(C)c1`: the EC50 is > 20 µM (inactive).

Regarding `CCN1C(=Cc2cc(C)[n+](C3CCCCC3)c(C)c2)Sc2ccccc21`, the EC50 was > 20 µM (inactive).

As to `N#CC1C(=N)Oc2cc(O)ccc2C1c1ccncc1` (configuration not stated), the EC50 was 7.22 µM.

Regarding `CCC(C)[n+]1c(C)cc(C=C2Sc3ccccc3N2CC)cc1C` (configuration not stated), the EC50 was 3.73 µM.

With `CCN1CCc2c(sc(NC(=O)C3=COCCO3)c2-c2nc3ccccc3s2)C1`, the EC50 was 0.945 µM.

`COCCN=Cc1cc(I)cc(I)c1O`: the EC50 is > 20 µM (inactive).

For the compound `CCCC[n+]1c(C)cc(C=C2Sc3ccccc3N2C)cc1C`, the EC50 was > 20 µM (inactive).

As for `CN(Cc1ccccc1)C1=CC2=CC(=C(C#N)C#N)CCC2CC1` (configuration not stated), the EC50 was > 20 µM (inactive).

`Cc1nn(C)c(Cl)c1/C=C1/CCCc2c1nc1ccccc1c2C(=O)O`: the EC50 is > 20 µM (inactive).

On to `COc1ccc(-c2cccc(-c3ccc(NC(=O)c4oc5ccccc5c4C)cc3)n2)cc1`, for which the EC50 was > 20 µM (inactive).

Turning to `NC(=S)N/N=c1\oc2cc(O)ccc2cc1-c1nc2ccccc2[nH]1`, the EC50 is 0.155 µM.

Regarding `COc1ccccc1N=c1oc2cc(O)ccc2cc1-c1nc2ccccc2[nH]1`, the EC50 is 0.805 µM.

Take `COC(=O)c1cnc(/C=C/c2cc(C)c(O)c(C)c2)s1`: the EC50 was > 20 µM (inactive).
